The text below walks through data of US9102678B2, “Compounds and methods for inhibiting mitotic progression” (Millennium Pharmaceuticals, Inc., priority 2004, dated 2015).

pIC50: −log10 of the molar value.

For this assay, the target named is T1, recombinant murine Aurora A enzyme (Mus musculus, UniProt P97477).
T1 construct: hexahistidine (His6) (N); made in house; host or cells: insect cells, baculovirus (Bac-to-Bac, Invitrogen)
T1 sequence (P97477 whole entry): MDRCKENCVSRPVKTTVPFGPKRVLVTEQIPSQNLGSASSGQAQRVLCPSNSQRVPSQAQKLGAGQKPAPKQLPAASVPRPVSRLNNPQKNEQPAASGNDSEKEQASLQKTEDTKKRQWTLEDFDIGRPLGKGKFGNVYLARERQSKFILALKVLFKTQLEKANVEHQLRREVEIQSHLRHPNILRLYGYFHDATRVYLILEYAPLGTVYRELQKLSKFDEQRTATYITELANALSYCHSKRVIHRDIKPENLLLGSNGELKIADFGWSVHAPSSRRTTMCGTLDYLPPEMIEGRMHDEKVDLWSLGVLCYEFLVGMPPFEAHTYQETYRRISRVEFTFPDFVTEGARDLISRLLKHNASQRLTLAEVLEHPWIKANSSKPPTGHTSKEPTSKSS
As to the kind of experiment: Aurora A DELFIA Kinase Assay. It counts as biochemical. The note with it: mouse Aurora A, 250 μM ATP; threshold less than or equal to 100 nM; read-out: IC50. The source says: Recombinant mouse Aurora A with an amino-terminus hexahistidine tag (His-Aurora A) was expressed using a standard baculovirus vector and insect cell expression system (Bac-to-Bac®, Invitrogen).
Soluble, recombinant mouse Aurora A was purified from insect cells using Ni-NTA agarose (Qiagen) as described by the manufacturer and further purified over an S75 size exclusion column (Amersham Pharmacia Biotech).
Aurora A DELFIA® Kinase Assay
The enzymatic reaction mixture, with and without Aurora inhibitors, was incubated for 15 minutes at room temperature before termination with 100 μL of stop buffer (1% BSA, 0.05% Surfact-AMPS-20, and 100 mM EDTA). A total of 100 μL of the enzyme reaction mixture was transferred to wells of a Neutravidin-coated 96-well plate (Pierce) and incubated at room temperature for 30 minutes. The wells were washed with wash buffer (25 mM Tris, 150 mM sodium chloride, and 0.1% Tween 20) and incubated for 1 hour with 100 μL of antibody reaction mixture containing 1% BSA, 0.05% Surfact-AMPS-20, anti-phospho-PKA rabbit polyclonal antibody (1:2000, New England Biolabs), and europium labeled anti-rabbit IgG (1:2000, Perkin Elmer). The wells were washed and then the bound europium was liberated using 100 μL of Enhancement Solution (Perkin Elmer). Quantification of europium was done using a Wallac™ EnVision (Perkin Elmer).
Consider `CN1CCN(C(=O)c2cccc(Nc3ncc4c(n3)-c3ccc(Cl)cc3C(c3ccccc3F)=NC4)c2)CC1` [Compound I-163, {3-[9-Chloro-7-(2-fluoro-phenyl)-5H-benzo[c]pyrimido[4,5-e]azepin-2-ylamino]-phenyl}-(4-methyl-piperazin-1-yl)-methanone], for which the pIC50 (in general, the IC50 on a negative log10 scale, so that one unit is a factor of ten) is not below 7.00.

Regarding `CN1CCC(N(C)C(=O)c2ccc(Nc3ncc4c(n3)-c3ccc(Cl)cc3C(c3ccccc3F)=NC4)cc2)C1` (centres unmarked) [Compound I-99, 4-[9-Chloro-7-(2-fluoro-phenyl)-5H-benzo[c]pyrimido[4,5-e]azepin-2-ylamino]-N-methyl-N-(1-methyl-pyrrolidin-3-yl)-benzamide], the pIC50 was not below 7.00.

For `COc1cccc(F)c1C1=NCc2cnc(Nc3cccc(C(=O)N4CCC(N(C)C)C4)c3)nc2-c2ccc(Cl)cc21` (centres unmarked) [Compound I-231, 9-chloro-N-(3-{[3-(dimethylamino)pyrrolidin-1-yl]carbonyl}phenyl)-7-(2-fluoro-6-methoxyphenyl)-5H-pyrimido[5,4-d][2]benzazepin-2-amine], the pIC50 was not below 7.00.

Turning to `COc1cccc(F)c1C1=NCc2cnc(Nc3ccc(C(=O)N4CCN(C)CC4)cc3)nc2-c2ccc(Cl)cc21` [Compound I-233, 9-chloro-7-(2-fluoro-6-methoxyphenyl)-N-{4-[(4-methylpiperazin-1-yl)carbonyl]phenyl}-5H-pyrimido[5,4-d][2]benzazepin-2-amine], the pIC50 is not below 7.00.

On to `COc1cccc(F)c1C1=NCc2cnc(Nc3ccc(C(=O)N(C)CCCN(C)C)cc3)nc2-c2ccc(Cl)cc21` [Compound I-225, 4-{[9-chloro-7-(2-fluoro-6-methoxyphenyl)-5H-pyrimido[5,4-d][2]benzazepin-2-yl]amino}-N-[3-(dimethylamino)propyl]-N-methylbenzamide], for which the pIC50 was not below 7.00.

As to `CNCCN(C)C(=O)c1ccc(Nc2ncc3c(n2)-c2ccc(Cl)cc2C(c2c(F)cccc2OC)=NC3)cc1` [Compound I-254, 4-{[9-chloro-7-(2-fluoro-6-methoxyphenyl)-5H-pyrimido[5,4-d][2]benzazepin-2-yl]amino}-N-methyl-N-[2-(methylamino)ethyl]benzamide], the pIC50 was not below 7.00.

`O=C(O)c1ccc(Nc2ncc3c(n2)-c2ccc(Cl)cc2C(c2ccccc2C(F)(F)F)=NC3)cc1` [Compound I-277, 4-({9-chloro-7-[2-(trifluoromethyl)phenyl]-5H-pyrimido[5,4-d][2]benzazepin-2-yl}amino)benzoic acid]: the pIC50 is not below 7.00.

On to `CN(CCc1ccccn1)C(=O)c1ccc(Nc2ncc3c(n2)-c2ccc(Cl)cc2C(c2ccccc2F)=NC3)cc1` [Compound I-160, 4-[9-Chloro-7-(2-fluoro-phenyl)-5H-benzo[c]pyrimido[4,5-e]azepin-2-ylamino]-N-methyl-N-(2-pyridin-2-yl-ethyl)-benzamide], for which the pIC50 is not below 7.00.

With `N=C(NC(=O)c1ccc(Nc2ncc3c(n2)-c2ccc(Cl)cc2C(c2c(F)cccc2F)=NC3)cc1)N1CCNCC1` [Compound I-224, 4-{[9-chloro-7-(2,6-difluorophenyl)-5H-pyrimido[5,4-d][2]benzazepin-2-yl]amino}-N-[imino(piperazin-1-yl)methyl]benzamide], the pIC50 is not below 7.00.

In the case of `CN(C)C1CCN(C(=O)c2ccc(Nc3ncc4c(n3)-c3ccc(Cl)cc3C(c3c(F)cccc3F)=NC4)cc2)CC1` [Compound I-183, {4-[9-Chloro-7-(2,6-difluoro-phenyl)-5H-benzo[c]pyrimido[4,5-e]azepin-2-ylamino]-phenyl}-(4-dimethylamino-piperidin-1-yl)-methanone], the pIC50 is not below 7.00.

As to `CNC1CCN(C(=O)c2ccc(Nc3ncc4c(n3)-c3ccc(Cl)cc3C(c3ccccc3OC)=NC4)cc2)CC1` [Compound I-331, 9-chloro-7-(2-methoxyphenyl)-N-(4-{[4-(methylamino)piperidin-1-yl]carbonyl}phenyl)-5H-pyrimido[5,4-d][2]benzazepin-2-amine], the pIC50 is not below 7.00.
